Measurements taken from article PMC8143347, “Metabolism and Interspecies Variation of IMMH-010, a Programmed Cell Death Ligand 1 Inhibitor Prodrug” (Pharmaceutics, 2021).

Legend:
[1] = IMMH-010 stability in rat plasma; format: in vitro ADME; details: 10 μM, 4 °C, 60 min
Procedure: (§1) IMMH-010 hydrolysis was investigated in human, monkey, rat, and mouse plasma. IMMH-010 (1 μM) was incubated in human, monkey, or […] plasma (0.2 mL) at 37 °C for 120 min. IMMH-010 (10 μM) was incubated in rat or mouse plasma (0.2 mL) at 4 °C for 60 min. The experiments were performed in triplicate. The reactions were initiated by the addition of IMMH-010 (10 μM). After incubation, the reactions were stopped by adding 2 volumes of ice-cold acetonitrile. After vortexing and centrifuging, the concentrations of IMMH-010 and YPD-29B in the supernatant were determined by liquid chromatography with tandem mass spectrometry (LC-MS/MS). The compound olmesartan (10 μM), a substrate of paraoxonase 1, was set as the positive control.

[2] = IMMH-010 stability in mouse plasma; format: in vitro ADME; details: 10 μM, 4 °C, 60 min
Procedure: as §1

[3] = Metabolism in rat liver S9 fractions; format: in vitro ADME
Procedure: IMMH-010 metabolism was compared in human, monkey, dog, and rat liver S9 homogenates. IMMH-010 (10 μM) was incubated with liver S9 homogenate protein (0.5 mg protein/mL) and a reduced nicotinamide adenine dinucleotide phosphate (NADPH) regenerating system in a final volume of 0.2 mL Tris-HCl buffer (50 mM, pH 7.4) containing 5 mM MgCl2. The reactions were performed in triplicate. After 2 min of preincubation at 37 °C, reactions were initiated by the addition of IMMH-010 (10 μM). The samples were collected 0, 5, 10, and 20 min after incubation, 2 volumes of acetonitrile were added to terminate the reaction. After vortexing and centrifugation, IMMH-010, YPD-29B, M3, and M4 in the supernatant were analyzed by LC-MS/MS.
(§2) All statistics were calculated using GraphPad Prism 8.0 software (San Diego, CA, USA) designed for one-way ANOVA. Pharmacokinetic parameters were calculated with a non-compartmental analysis using WinNonlin Version 6.3 (Pharsight, Mountain View, CA, USA). ADMET predictor V10.0 (Simulations Plus, Inc., Lancaster, CA, USA) and Microsoft Excel (Microsoft, Redmond, WA, USA) were used to process the data (i.e., half-life (t1/2) and hepatic clearance (CLhep) determination). Data were expressed as means ± standard deviations (SD). Results were considered statistically significant if the p-value <0.05, <0.01 and <0.001.

[4] = Plasma and tumor PK in MC38 colon cancer xenograft mice; format: in vivo, mouse; details: after last oral dose of IMMH-010 maleate 5 mg/kg
Procedure: After the final dose, tumor and blood samples treated with IMMH-010 maleate (5 mg/kg) were collected over 72 h. Blood was exposed in an EP tube containing 500 mM NaF and 0.5% heparin sodium. Plasma samples were obtained by centrifugation, and tumor tissues were homogenized with 3 volumes (w/v) of saline on ice. The concentration of IMMH-010 and YPD-29B in plasma and tumor samples was quantitated by an LC-MS/MS method.
(§3) LC-MS/MS was performed using a triple quadrupole mass spectrometer (API 4000, AB Sciex, Framingham, MA, USA) with an ultra-performance liquid chromatography system (LC-30A, Shimadzu, Kyoto, Japan). Analyst 1.6.2 software (AB Sciex) was used for data acquisition and analysis. Mobile phase A was 1 mM ammonium acetate and mobile phase B was methanol. The mobile phase was delivered with the following gradient elution profile: 0–2.8 min, 70% B; 2.9 min, 85% B; 3 min, 90% B; 3.1–6.8 min, 100% B; 6.9–12 min, 70% B. The flow rate was 0.3 mL/min, and the column oven was maintained at 35 °C. The specific transitions monitored were 641.3 → 494.2 for IMMH-010, 597 → 155 for YPD-29B, 512 → 247 for M3, and 524 → 246 for M4.
as §2

[5] = PK study in male cynomolgus monkeys; format: in vivo, cynomolgus monkey; details: cynomolgus monkey, plasma, single oral IMMH-010 maleate 5 mg/kg
Procedure: IMMH-010 maleate was suspended with 0.5% carboxymethyl cellulose to make a 1 mg/mL suspension for PO gavage. Four male cynomolgus monkeys received a single oral dose of IMMH-010 maleate (5 mg/kg). Serial blood samples were collected upto 48 h. The plasma was separated and the plasma concentrations of IMMH-010 and YPD-29B were determined by LC-MS/MS.
as §3, §2

CES2 = target: T1, CES2 (Homo sapiens, UniProt O00748); experiment: IMMH-010 hydrolysis by recombinant human CES2; format: in vitro ADME; design: purchased Cypex Ltd. (Dundee, United Kingdom); details: 10 μM, CES2 0.1 mg/mL, 15 min, 37 °C
T1 sequence (O00748 27-559): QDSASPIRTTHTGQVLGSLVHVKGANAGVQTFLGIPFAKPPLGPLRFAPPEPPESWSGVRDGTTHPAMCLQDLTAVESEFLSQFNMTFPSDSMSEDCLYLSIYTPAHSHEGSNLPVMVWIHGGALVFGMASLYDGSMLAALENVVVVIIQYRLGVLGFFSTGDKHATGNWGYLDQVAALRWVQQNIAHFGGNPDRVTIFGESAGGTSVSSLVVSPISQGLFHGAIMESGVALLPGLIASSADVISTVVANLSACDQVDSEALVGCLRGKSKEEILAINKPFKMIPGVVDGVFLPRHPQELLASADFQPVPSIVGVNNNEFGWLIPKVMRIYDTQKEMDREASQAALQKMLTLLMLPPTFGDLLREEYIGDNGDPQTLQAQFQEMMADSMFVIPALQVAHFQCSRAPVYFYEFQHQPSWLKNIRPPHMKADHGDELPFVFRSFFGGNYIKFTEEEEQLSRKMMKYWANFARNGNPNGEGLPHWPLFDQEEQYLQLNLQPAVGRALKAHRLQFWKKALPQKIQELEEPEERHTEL
Procedure: To verify the role of CES1, CES2, and AADAC in human metabolism of […]-010 (10 μM) was incubated individually with recombinant human CES1, CES2, and AADAC (0.1 mg protein/mL) at 37 °C for 15 min. Lidocaine (500 μM), CPT-11 (2 μM), and phenacetin (1 mM), which are substrates of CES1, CES2, and AADAC, were used as positive controls.

plasma stability [1]: decreased time-dependently
plasma stability [2]: decreased time-dependently
estimated CLhep ([3]; from rat liver S9): 58.4 mL/min/kg
half-life at 10 μM ([3]; pH 7.4, rat liver S9 0.5 mg protein/mL, 10 μM, NADPH): 7.1 min
concentration of IMMH-010 in plasma and tumor tissues [4]: < 1 ng/mL
AUC [5]: 47.9 ng·h/mL
Cmax [5]: 9.46 ng/mL
half-life ([5]; read-out: mean t1/2β in plasma (converted)): 5.16 h
Tmax ([5]; read-out: observed time to peak concentration): ≤ 1.5 h
remaining amount of IMMH-010 (CES2): 94.2%
SMILES: CC(C)OC(=O)[C@H](CO)NCc1cc(Cl)c(OCc2cccc(-c3ccccc3)c2Br)cc1OCc1cccnc1 [IMMH-010]
